Data set [1] concerns wild type C57B1/6 male mice. Put plainly: Imiquimod-induced type 17 skin inflammation, topical treatment. It is filed as in vivo, mouse. How it is done:
Wild type C57B1/6 male mice 8-10 week old were purchased from Jackson labs. A 7 mm diameter circle was shaved and treated with Nair on the flank. Baseline ear thickness was measured. For 5 days, mice received daily treatment of 30 mg of 5% imiquimod cream (Taro) to each ear and to the 7 mm area on the flank. Ear thickness was recorded on days 3 and 5 to ensure peak inflammation had occurred. Mice were then randomized into three cohorts: vehicle, LRE1, and Clobetasol. […] Treatment with imiquimod was continued during this period as above. Ear thickness was recorded every day before the first dose of drug. On day 11, all mice were euthanized. A 7 mm punch biopsy was collected from the flank and both ears were removed. Skin was stored in RNAlater (Sigma) for qPCR or 10% formalin for immunohistochemistry.
For tissue, RNA was isolated according to specifications of the RNA easy plus universal mini kit (Qiagen). Tissue was homogenized using stainless steel beads in a bead beater. For frozen cell pellets, RNA was isolated according to specifications of the RNA easy plus mini kit (Qiagen). Samples were homogenized using Qiashredder columns (Qiagen). RNA quality control was performed using a nanodrop spectrophotometer. cDNA was made using the high-capacity rna-to-cdna kit (thermo fischer). The applied biosystems power SYBR green PCR master mix was used for qPCR. 40 cycles with annealing temperatures of 60 degrees celsius and a melting curve were performed using the QuantStudio 6 real-time PCR instrument (thermo fischer). Delta delta CT analysis was performed to determine relative transcription amongst samples normalized to GAPDH.

The next data set has as its system immobilized sAC protein. Put plainly: Binding kinetics by surface plasmon resonance. On the procedure:
After coupling, remaining reactive groups on the chip's surface were blocked with 1 M ethanolamine followed by 350 mM EDTA to wash away any free Ni^2+. […] All experiments included reference channels; i.e., inhibitor run over parallel channels without immobilized protein. Binding kinetics were determined by subtracting responses in the reference channels from responses in the active channels. Curves were fitted, and kon and koff values were determined using the Biacore 8K Insight Evaluation Software Version 2.0 (Cytiva) and a 1:1 binding kinetics model.
On the technique in general: SPR reads the build-up and loss of mass on a sensor chip optically.

A further data set deals with mouse sperm. In words: Ex vivo sperm tyrosine phosphorylation (Western blot) from injected mice. Format: in vivo. The conditions noted are these: 50 mg/kg i.p., one hour post injection. How it is done: After 15 minutes swim-out at 37° C., sperm from two caudae were combined and counted using a hematocytometer. For capacitation, sperm were incubated for 90 minutes in TYH containing 3 mg/ml BSA and 25 mM NaHCO3 in a 37° C. incubator. To control for the consequences of dilution during isolation of epididyrnal mouse sperm for ex vivo assays, the ability for bicarbonate to induce a prototypical pattern of tyrosine phosphorylation (pY) which is a widely used molecular hallmark of capacitation was assessed [Reference 80]. Bicarbonate-induced pY is known to be sAC dependent in vitro [References 37, 46, 62]. For experiments studying sperm from injected mice, ‘swim out’ was performed in 200 μl TYH, which corresponded to a 1:10 dilution from epididymis ([…] in 200 μl buffer). Capacitation induced changes were assessed by adding 50 μl of ‘swim out’ sperm to increasing volumes of non-capacitating or capacitating TYH buffer.
Mouse sperm from vehicle or inhibitor-injected mice were isolated 1 hour from male mice injected (i.p.) with 150 μl of solution containing sAC inhibitor or vehicle. Sperm were diluted 1:20 to 1:1000 in capacitating TYH media. As control, sperm from vehicle-injected mice were diluted 1:1000 in non-capacitating and capacitating TYH buffer. The samples were incubated for 90 minutes, washed with 1 ml PBS and sedimented by centrifugation at 2,000×g for 3 minutes. The sedimented sperm were resuspended in 15 μl 2× Laemmli sample buffer [Reference 83], heated for 5 minutes at 95° C., supplemented with 8 μl β-mercaptoethanol and heated again for 5 minutes at 95° C. For Western blot analysis, proteins were transferred onto PVDF membranes (Thermo Scientific), probed with anti-phosphotyrosine antibodies, and analyzed using a cherniluminescence detection system. Image lab (Bio-Rad) was used for densitometric analysis of Western blots.

Data set [2] deals with mouse oocytes with capacitated wild-type sperm. In words: In vitro fertilization. Format: cell-based. On the procedure: In vitro fertilization: On the day of preparation, sperm were capacitated for 90 min in HTF medium (EmbryoMax Human Tubal Fluid; Merck Millipore). 100 μl drops of HTF were covered with medium/oil mixture (HTF mixed 1:1 with mineral oil), and 10^5 sperm were added to each drop. Cumulus-enclosed oocytes were prepared from the oviducts of superovulated females and added to the drops. […] The number of 2-cell stages was evaluated after 24 hr.

Data set [3] has as its system wild type (WT) C57B1/6 mouse eyes. In words: Intraocular pressure (IOP) study. Format: in vivo. Conditions: one hour post ip injection. How it is done: A mouse was anesthetized via intraperitoneal (ip) injection of room temperature ketamine/xylazine. Anesthesia was assessed by pinching back. The anesthetized mouse was placed on a platform. The anterior chamber was cannulated using a 33-gauge stainless steel needle. The needle was inserted anterior to the limbus and through the cornea. The cannula was connected to a pressure transducer using teflon tubing and was calibrated to a water height equivalent of 0 mm Hg. The transducer signal was amplified, converted to a digital signal, and the voltage was recorded using LabScribe3 software. IOP was calculated by comparing the change in voltage to a standard calibration curve generated at the end of each experiment using the water height column.

In the next data set the test system is human sperm. In words: Acrosome reaction assay. Format: cell-based. Conditions: 5 μM Example 1 or 10 nM Example 133; 10 μM progesterone. How it is done: For analysis of acrosomal exocytosis, 100 μl of 1×10^7 sperm/ml were capacitated for 90 minutes in TYH buffer supplemented with 3 mg/ml BSA and 25 mM NaHCO3 (mouse sperm) or HTF buffer supplemented with […] HSA and 25 mM NaHCO3 (human sperm). sAC inhibitors were added with capacitating buffer; 0.1% DMSO was used as vehicle control. Acrosome reaction was induced by incubating mouse sperm with 50 mouse solubilized zonae pellucidae for 15 minutes at 37° C., or human sperm with 10 μM progesterone for 30 minutes at 37° C. The sperm suspensions were sedimented by centrifugation at 2,000×g for 5 minutes and the sedimented sperm were resuspended in 100 μl PBS buffer. Samples were air-dried on microscope slides and fixed for 30 minutes in 100% ethanol at room temperature (RT). For acrosome staining, mouse and human sperm were incubated for 30 minutes in the dark with 5 μg/ml PNA-FITC or 5 μg/ml PSA-FITC, respectively, and counterstained with 2 μg/ml DAPI. After curing, slides were analyzed using a Zeiss LSM 880 Laser Scanning Confocal Microscope; images were captured with two photomultiplier and one Gallium Arsenide Phosphide detector using ZEN Imaging software. For each condition, at least 600 cells were analyzed using ImageJ 1.52.

Setting [4] is: swim out sperm minimally diluted.

As for `Cc1c(Cc2ccccc2)c(-c2cc(Cl)nc(N)n2)nn1C` [Example 1, 4-(4-benzyl-1,5-dimethyl-pyrazol-3-yl)-6-chloro-pyrimidin-2-amine], in data set [1] (applied at the same time as imiquimod, N=5), the “inflammation in the ears measured by ear calipers” value is on record as “reduce the inflammation”. Besides, in data set [1] (imiquimod 6 days, then continued imiquimod plus topical twice a day: LRE1 3%, Example 1 […], Clobetasol 0.05%), the “skin inflammation (ear thickness)” value is “significant reduction in skin inflammation”. Besides, in data set [1] (imiquimod for one week, then imiquimod plus compound, over 4 days, N=5), the reduction in inflammation came out at 50%. Moreover, the “off-rate (T1/2)” value with immobilized sAC protein amounted to 20 s. Besides, the figures for the “capacitation-induced tyrosine phosphorylation (pY) pattern ex vivo” value in the data set on mouse sperm (diluted 25 fold) and with mouse sperm (setting [4]) were “restored” and “blocked”, respectively. Further, the “amount of 2-cell stage oocytes” value in data set [2] (5 μM, control 30%) stood at 10%. The fertilization in vitro result in data set [2] (50 μM) was “fully blocked fertilization”. Further, the “intraocular pressure (IOP)” value in data set [3] is given as “dose dependently elevates IOP”.
In the case of `Nc1nc(Cl)cc(-c2nn(C(F)F)cc2Cc2ccccc2OCCN2CCOC[C@H]2CO)n1` [Example 133], the “blocking acrosome reaction induced by progesterone” value with human sperm is “more potent than Example 1”. The “off-rate (T1/2)” value with immobilized sAC protein came to 4550 s. Further, the “capacitation-induced tyrosine phosphorylation (pY) pattern ex vivo” value is listed as “remained blocked” with mouse sperm (diluted 100 fold) and “blocked” with mouse sperm (setting [4]).

These data come from patent publication US20240239774A1, “SOLUBLE ADENYLYL CYCLASE (SAC) INHIBITORS AND USES THEREOF” (Cornell University, priority 2021, published 2024).
